Measurements from ChEMBL document CHEMBL3414465, “Discovery of novel P1 groups for coagulation factor VIIa inhibition using fragment-based screening” (J Med Chem, 2015).

Assays:
[1] = target: Coagulation factor VII/tissue factor (Homo sapiens, UniProt P08709); assay: Inhibition of human soluble tissue factor/factor VIIa expressed in Origami B (DE3) using D-Ile-Pro-Arg-pNA as substrate after 30 mins by spectrophotometric analysis
Plasma = assay: Anticoagulant activity in factor VII-deficient human plasma assessed as concentration required to prolong clotting time by two-fold; assay type: functional
[2] = Permeability of the compound after 4 hrs by PAMPA; assay type: ADME; conditions: read-out: permeability

Sequence of Coagulation factor VII/tissue factor (P08709 61-212 limits assumed): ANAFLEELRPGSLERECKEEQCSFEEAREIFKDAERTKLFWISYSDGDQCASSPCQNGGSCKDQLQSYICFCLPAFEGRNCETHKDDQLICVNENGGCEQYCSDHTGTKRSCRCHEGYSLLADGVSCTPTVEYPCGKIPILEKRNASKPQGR
Sequence of Coagulation factor VII/tissue factor (P08709 213-466 limits assumed): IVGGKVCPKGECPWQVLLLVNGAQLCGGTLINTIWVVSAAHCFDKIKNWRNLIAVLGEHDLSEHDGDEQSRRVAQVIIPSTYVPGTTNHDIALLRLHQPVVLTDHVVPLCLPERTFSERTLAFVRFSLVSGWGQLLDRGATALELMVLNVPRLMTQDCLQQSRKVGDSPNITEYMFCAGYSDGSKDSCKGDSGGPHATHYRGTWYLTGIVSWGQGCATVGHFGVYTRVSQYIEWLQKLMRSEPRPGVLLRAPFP
Sequence of Coagulation factor VII/tissue factor (P13726 33-295 partner limits assumed): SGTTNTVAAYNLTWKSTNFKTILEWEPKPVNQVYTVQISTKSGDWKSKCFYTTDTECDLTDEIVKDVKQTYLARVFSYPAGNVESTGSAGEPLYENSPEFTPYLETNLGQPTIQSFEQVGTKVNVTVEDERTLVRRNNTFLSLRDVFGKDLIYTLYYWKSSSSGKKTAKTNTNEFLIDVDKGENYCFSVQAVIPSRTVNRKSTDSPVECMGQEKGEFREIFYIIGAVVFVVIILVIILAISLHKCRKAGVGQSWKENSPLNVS

| SMILES | Ki [1] [mM] | 2PT (Plasma) [µM] | Papp at 4 h [2] [×10⁻⁶ cm/s] |
| --- | --- | --- | --- |
| Clc1ccc2[nH]nnc2c1 | 8.7 |  |  |
| CC(O)c1cccc2ccccc12 (centres undefined) | 16 |  |  |
| COc1cc(Br)ccc1O | 13 |  |  |
| COC(=O)c1cccc2[nH]ccc12 | 13 |  |  |
| COc1cc(Cl)ccc1O | 16 |  |  |
| O=C(O)c1c[nH]c2ccc(Cl)cc12 | 5.7 |  |  |
| COC(=O)Nc1ccc(S(=O)(=O)C(C)C)c([C@H]2CCCN2C(=O)[C@H](Nc2ccc3c(c2)C(=O)NCC3)c2cc(OC)c(OC)cc2F)c1 | 0.00013 | 160 | 1.8 |
| Clc1ccc2[nH]ccc2c1 | 4.3 |  |  |
| O=C(O)c1cc2cc(Cl)ccc2[nH]1 [5-CHLOROINDOLE-2-CARBOXYLIC ACID] | 3.5 |  |  |
| N=C(N)c1ccccc1 [BENZAMIDINE] | 0.24 |  |  |
| OCc1ccc(Cl)cc1Cl [DICHLOROBENZYL ALCOHOL] | 13 |  |  |
| NC(=O)c1cccnc1 [NIACINAMIDE] | 8 |  |  |
